In series [1] the test system is dopaminergic (D2) receptors. The following applies: state of the art; cited from earlier work.
For series [2] the following is noted: state of the art; cited from earlier work.
The next series relates to rats. The following applies: state of the art; cited from earlier work.
For series [3], the target named is T1, sigma receptors (Rattus norvegicus, UniProt Q9R0C9).
T1 construct: (SKF 10,047/rat brain membranes); from tissue; host or cells: rat brain membranes
As to the kind of experiment: Sigma binding, SKF 10,047/rat brain membranes (Table 1.B). The settings on record: rat brain membranes. On the procedure:
(§1) Tests of binding to phencyclidine and dopamine D2 receptors were carried out to study the possible undesirable interactions of the compounds of the invention with these receptors. The ligands used are [^3 H]-TCP for phencyclidine and [^3 H]spiroperidol for dopamine.
(§2) The binding experiments are carried out with the sigma ligands (+)-[^3 H]-SKF10,047 and [^3 H]-TCP according to the technique described by Largent B. L. et al. in J. Pharmacol. Exp. Ther. 238, 1986, p 739-748, the principle of which is to place in competition the respective affinities of the product under study and that of a radioactive characteristic ligand for sigma receptors.
(§3) The technique consists in incubating solutions of suitable concentrations of the test products with standard samples of membranes loaded with the labeled ligand, and then in determining the radioactivity of the solution after filtration.
(§4) The results are processed so as to calculate the IC50 of the product under study, which represents the nanomolar concentration of solution capable of inhibiting 50% of the binding of the tritiated ligand to the sigma receptors of the membranes used.
(§5) The SKF 10,047 binding tests are performed with guinea pig or rat brain membranes, those with DTG and TCP are performed with rat brain membranes; the D2 binding tests are performed with guinea pig brain membranes.

Series [4] concerns the target T2, sigma receptors (Cavia porcellus, UniProt Q60492).
T2 construct: from tissue; host or cells: guinea pig brain membranes
As to the kind of experiment: Sigma binding test with (+)-[3H]-SKF10,047, guinea pig brain membranes (Table 1.A). The settings on record: read-out: SKF10047 guinea pig IC50. As to the method:
as §1, §2, §3, §4, §5

Series [5] addresses sigma receptors. As to the kind of experiment: Sigma binding test with [3H]-DTG (Table 1.A). The following applies: guinea pig. On the procedure:
as §1
(§6) Binding with the ligand [^3 H]-DTG is carried out according to the technique of Weber, E. M. et al., 1986, Proc. Natl. Acad. Sci., 83:8784-8788, and binding with the ligand [^3 H]spiroperidol is carried out according to the technique of Fields, J. Z., Reisine, R. D. and Yamamura, H. 1., Brain Res., 136,578 (1977).
as §3, §4, §5

The target of series [6] is phencyclidine (PCP) receptors. As to the kind of experiment: PCP receptor binding test with [3H]-TCP (Table 1.A). The settings on record: guinea pig. On the procedure:
as §1, §2, §3, §4, §5

The target of another series is T3, dopamine D2 receptors (Rattus norvegicus, UniProt P61169).
T3 construct: from tissue; guinea pig by b443
T3 sequence (P61169 whole entry): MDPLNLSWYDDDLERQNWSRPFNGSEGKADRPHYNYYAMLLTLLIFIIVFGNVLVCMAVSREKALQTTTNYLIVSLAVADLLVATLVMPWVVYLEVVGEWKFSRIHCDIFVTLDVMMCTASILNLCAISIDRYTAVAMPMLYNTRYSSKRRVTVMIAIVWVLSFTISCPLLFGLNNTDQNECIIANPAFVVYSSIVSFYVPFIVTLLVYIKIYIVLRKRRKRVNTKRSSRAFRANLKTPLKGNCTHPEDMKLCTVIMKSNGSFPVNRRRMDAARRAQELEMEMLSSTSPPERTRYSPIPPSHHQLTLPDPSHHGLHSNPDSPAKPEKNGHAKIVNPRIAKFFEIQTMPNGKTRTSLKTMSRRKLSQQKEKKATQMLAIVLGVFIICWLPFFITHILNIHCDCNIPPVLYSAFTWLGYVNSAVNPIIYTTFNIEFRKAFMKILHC
As to the kind of experiment: Dopamine D2 binding test with [3H]spiroperidol (Table 1.A). On the procedure:
as §1, §6, §3, §4, §5

In series [7] the test system is convulsions induced by electric shocks in rats. As to the kind of experiment: Protection against convulsions induced by electric shocks in rats. The class given is in vivo, rat (male Sprague Dawley). The settings on record: sc, 0.5 h; rat; subcutaneous; shock 30 minutes after injection; protection in 50% of the animals. On the procedure: (§7) Moreover, "in vivo" tests enabled the capacity of the compounds of the invention (I) to inhibit convulsions induced by electric shocks in rats, and also their capacity to inhibit gastroduodenal ulcers caused by administration of cysteamine, to be detected.
a) Convulsions in rats: electric shock
The psychotropic properties of the compounds (I) were determined by the protection against convulsions induced by electric shocks in rats.
The emission of an electric shock causes a convulsive state in the animal, characterized by the convulsive extension of front and rear legs.
In practice, the study is carried out on groups of 10 male Sprague Dawley rats weighing approximately 100 grams, to which the product under study is administered subcutaneously in aqueous solution on the basis of 0.5 ml per 100 grams of the animal's body weight.
An electric shock is then produced 30 minutes after the injection by means of a UGO BASILE ECT UNIT 7801 electric shock apparatus (APELEX): frequency 50 cps/sec, pulse width 0.6 ms, shock duration 1 sec, intensity 90 mA. […] Each animal then receives a score, which is equal to 1 for the presence of tonic convulsions and zero for the absence of tonic convulsions. […] The results are compared statistically between the control group and the treated group by the test of Fisher R. A. and Yates F. (Biometrika, 1948, 35-149) and the ED50 (dose of the test compound giving rise to protection in 50% of the animals) is calculated by the method of Litchfield J. T. and Wilcoxon F. (J. Pharmacol. Exp. Therap., 1949, 96-99).

For series [8], the system named is cysteamine-induced ulcers. As to the kind of experiment: Inhibition of cysteamine-induced gastroduodenal ulcers in rats. The class given is in vivo, rat (male Sprague Dawley). The following applies: rat, 50% inhibition of ulceration, read-out: Cysteamine ulcer ED50.
Source text: as §7
b) Cysteamine-induced ulcer
The activity of the compounds of the invention with respect to the gastrointestinal tract was shown in rats by their capacity to inhibit gastroduodenal ulcers caused by administration of cysteamine. (Robert and al., Digestion, 1974, 11, 199-211).
In practice, the study is carried out according to the method described by Selye, H. and Szabo, S., Nature, 1973, 244:458-459 on groups of male Sprague Dawley rats weighing 200 g on average, to which a solution of cysteamine hydrochloride is administered by subcutaneous injection on the basis of 400 mg/kg, […] the ulcerogenic agent. Eighteen hours later, the rats are sacrificed by elongation, and the stomach and duodenum are removed, rinsed with physiological solution and pinned onto a card. The presence of ulcers of the antropyloroduodenal region is looked for, and their area, expressed in mm^2, is evaluated by multiplying the two principal perpendicular axes of the lesion. Statistical analysis of the results is carried out using Student's test for the ulcerated areas in comparison with a control group. The results are presented in Table 2, and expressed as an ED50 of ulceration scores, which are the effective doses of product in (mg/kg) for a 50% inhibition of the cysteamine-induced ulcers.

Series [9] can be described thus: Stability remark on isolated product. In kind it is physicochemical. The following applies: free base, after Stage 3.
Series [10] deals with dopaminergic D2 receptors. The following applies: state of the art; cited from earlier work.
Series [11] concerns phencyclidine (PCP) receptors. The settings on record: state of the art; cited from earlier work.

Molecules are shown by their SMILES. Structures can show the parent of a compound that is named as a salt. Where two headings read alike, the source gives them in different places. Bounds are passed on as bounds.

T1 sequence (Q9R0C9 whole entry): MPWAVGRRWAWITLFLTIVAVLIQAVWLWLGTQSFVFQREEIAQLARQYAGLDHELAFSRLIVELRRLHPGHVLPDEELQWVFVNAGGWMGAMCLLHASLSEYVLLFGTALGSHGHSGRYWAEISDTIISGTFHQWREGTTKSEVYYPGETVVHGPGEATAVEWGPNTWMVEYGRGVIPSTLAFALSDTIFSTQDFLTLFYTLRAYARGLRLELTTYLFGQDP
T2 sequence (Q60492 whole entry): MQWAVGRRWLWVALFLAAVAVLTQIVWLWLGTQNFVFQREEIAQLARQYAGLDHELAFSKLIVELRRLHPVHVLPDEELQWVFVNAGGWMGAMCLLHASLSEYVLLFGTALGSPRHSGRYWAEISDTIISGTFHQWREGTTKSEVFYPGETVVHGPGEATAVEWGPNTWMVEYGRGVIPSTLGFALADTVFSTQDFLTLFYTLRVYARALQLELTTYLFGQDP

For the compound `CCCN1CCC[C@H](c2cccc(O)c2)C1` [(+)-3-PPP, (+)-3-(3-hydroxyphenyl)-N-(1-propyl)piperidine], the “affinity for dopaminergic (D2) receptors” value in [1] is listed as “strong affinity for dopaminergic (D2) receptors”.

For `Cc1ccccc1NC(=N)Nc1ccccc1C` [DTG, 1,3-di-o-tolylguanidine], the “crossing the blood-brain barrier” value in series [2] is reported as “difficulty in crossing the blood-brain barrier”. The symptoms in rats result in the series on rats was “causes symptoms in rats similar to those of PCP”.

Compound `CN(CCC1Cc2ccccc2C1=O)CC1CC1` (centres unmarked) [EXAMPLE 1, 2-[2-[(N-Cyclopropylmethyl-N-Methyl)Amino]Ethyl]-1-Oxo-1,2-Dihydroindene Hydrochloride] displayed a half-maximal inhibitory concentration (IC50) on sigma receptors [3] of 10.7 nM.

`CN(CCC1CCc2ccccc2C1=O)CC1CC1` (centres unmarked) [EXAMPLE 2, 2-[2-[(N-Cyclopropylmethyl-N-Methyl)Amino]Ethyl]-1-Oxo-1,2,3,4-Tetrahydronaphthalene Hydrochloride]: the half-inhibitory concentration (IC50) on sigma receptors [4] is 12 nM; on sigma receptors [3] it was 19.4 nM; at sigma receptors [5] it was 52 nM; in [6] it was more than 10000 nM; on dopamine D2 receptors it was more than 10000 nM. In addition, the ED50 in [7] worked out at 0.1 mg/kg.

As for `CN(CCC1CCc2ccccc2C1=O)CC1CCC1` (centres unmarked) [EXAMPLE 3, 2-[2-[(N-cyclobutylmethyl-N-methyl)amino]ethyl]-1-oxo-1,2,3,4-tetrahydronaphthalene], the IC50 on sigma receptors [4] is 5.24 nM; on sigma receptors [3], 11.1 nM; in series [6], more than 10000 nM; on dopamine D2 receptors, 1170 nM. Moreover, the 50% effective dose (ED50) in [7] came out at 0.9 mg/kg; in series [8] (intraperitoneal route (ip)), 5.7 mg/kg; in series [8] (oral route (po)), 8.6 mg/kg.

Take `CN(CCC1CC1)CCC1CCc2ccccc2C1=O` (centres unmarked) [EXAMPLE 4, 2-[2-[(N-Cyclopropylethyl-N-Methyl)Amino]Ethyl]-1-oxo-1,2,3,4-Tetrahydronaphthalene Hydrochloride]: the half-inhibitory concentration (IC50) is 2.83 nM at sigma receptors [4]; 10.6 nM at sigma receptors [3]; 56 nM on sigma receptors [5]; more than 10000 nM in series [6]; 1910 nM at dopamine D2 receptors. Further, the 50% effective dose (ED50) in series [7] was 1 mg/kg; in series [8] (oral route (po)), 15.6 mg/kg.

At sigma receptors [3], `CN(CCC1CCc2ccccc2C1=O)CC1CCCCC1` (centres unmarked) [EXAMPLE 5, 2-[2-[(N-Cyclohexylmethyl-N-Methyl)Amino]-Ethyl]-1-Oxo-1,2,3,4-Tetrahydronaphthalene Hydrochloride] came in with a concentration for half-maximal inhibition (IC50) of 8.2 nM.

With `COc1ccc2c(c1)CCC(CCN(C)CC1CCCCC1)C2=O` (centres unmarked) [EXAMPLE 6, 2-[2-[(N-Cyclohexylmethyl-N-Methyl)Amino]-Ethyl]6-Methoxy-1-oxo-1,2,3,4-Tetrahydronaphthalene Hydrochloride], the half-maximal inhibitory concentration (IC50) on sigma receptors [3] worked out at 8 nM.

`O=C1c2ccccc2CCC1CCNC1CC1` (centres unmarked) [EXAMPLE 7, 2-[2-(N-Cyclopropylamino)Ethyl]-1-Oxo-1,2,3,4-Tetrahydronaphthalene]: the stability result in [9] is listed as “unstable”.

`CCCN(CCC1CCc2ccccc2C1=O)CC1CC1` (centres unmarked) [EXAMPLE 9, 2-[2-[(N-cyclopropylmethyl-N-propyl)amino]ethyl]-1-oxo-1,2,3,4-tetrahydronaphthalene]: the half-maximal inhibitory concentration (IC50) on sigma receptors [3] was found to be 10.4 nM.

In the case of `CN(CCC1CCCc2ccccc2C1=O)CC1CC1` (centres unmarked) [EXAMPLE 10, 2-[2-[(N-Cyclopropylmethyl-N-Methyl)Amino]Ethyl]-1-Benzosuberone Hydrochloride], the 50% inhibitory concentration (IC50) on sigma receptors [3] worked out at 5.7 nM. The compound further had a median effective dose (ED50) in series [7] of 1.6 mg/kg.

`CN(CCC1CCCc2ccccc2C1=O)CC1CCCCC1` (centres unmarked) [EXAMPLE 11, 2-[2-[(N-Cyclohexylmethyl-N-Methyl)Amino]-Ethyl]-1-Benzosuberone Hydrochloride]: on sigma receptors [3], the half-inhibitory concentration (IC50) was found to be 6.6 nM.

Consider `CN(CCC1CCc2ccccc2C12OCCO2)CC1CC1` (centres unmarked) [EXAMPLE 12, 2-[2-[(N-cyclopropylmethyl-N-methyl)amino]ethyl]-1-[spiro(cyclodioxyethyl)]-1,2,3,4-tetrahydro naphhtalene], for which, on sigma receptors [3], the 50% inhibitory concentration (IC50) was 30.5 nM. Further, the 50% effective dose (ED50) in series [7] came to 1.7 mg/kg; in series [8] (intraperitoneal route (ip)) it was 11.6 mg/kg.

For `CN(CCC1CCc2ccccc2C1=NO)CC1CCC1` (centres unmarked) [EXAMPLE 13, 2-[2-[(N-Cyclobutylmethyl-N-Methyl)Amino]Ethyl]-1-Hydroxyimino-1,2,3,4Tetrahydronaphthalene], at sigma receptors [3], the IC50 came out at 7.7 nM.

At sigma receptors [3], `CN(CCC1COc2ccccc2C1=O)CC1CC1` (centres unmarked) [EXAMPLE 14, 3-[2-[(N-Cyclopropylmethyl-N-Methyl)Amino]-Ethyl]4-Chromanone Hydrchloride] yielded a concentration for half-maximal inhibition (IC50) of 13.7 nM. In series [7], this compound showed a 50% effective dose (ED50) of 3.5 mg/kg.

The compound `CN(CCC1COc2ccccc2C1=O)CC1CCCCC1` (centres unmarked) [EXAMPLE 15, 3-[2-[(N-cyclohexylmethyl-N-methyl)amino]ethyl]-4-chromanone] displayed an IC50 on sigma receptors [3] of 5.7 nM.

The compound `CN(CCC1COc2ccc(F)cc2C1=O)CC1CCCCC1` (centres unmarked) [EXAMPLE 16, 3-[2-[(N-Cyclohexylmethyl-N-Methyl)Amino]-Ethyl]-6-Fluoro-4-Chromanone Hydrochloride] showed an IC50 on sigma receptors [3] of 6.2 nM.

With `C=CCN(C)CCC1CCc2ccccc2C1=O` (centres unmarked) [EXAMPLE 17, 2-[2-[(N-Allyl-N-Methyl)Amino]Ethyl]-1-Oxo-1,2,3,4-Tetrahydronaphthalene Hydrochloride], at sigma receptors [3], the IC50 came to 13.3 nM.

Consider `O=C(CCCN1CCC(O)(c2ccc(Cl)cc2)CC1)c1ccc(F)cc1` [Haloperidol, 4-[4-(p-chlorophenyl)-4-hydroxypiperidino]-4'-fluorobutyrophenone], for which the “affinity for dopaminergic (D2) receptors” value in series [1] is given as “strong affinity for dopaminergic D2 receptors”. In [10], the extrapyramidal disorders result was “can induce extrapyramidal disorders of the cataleptic type”.

With `C=CCN1CCC2(C)c3cc(O)ccc3CC1C2C` (centres unmarked) [SKF 10047, N-allylnormetazocine], the “affinity for phencyclidine (PCP) receptors” value in series [11] is reported as “strong affinity for phencyclidine (PCP) receptors”.

`C[C@H]1[C@H]2Cc3ccc(O)cc3[C@]1(C)CCN2CC1CC1` [cyclazocine]: the “affinity for phencyclidine (PCP) receptors” value in series [11] is given as “strong affinity for phencyclidine (PCP) receptors”.
